From patent US9249208B2, “Citrulline peptides derived from fibrin and recognized by rheumatoid arthritis specific autoantibodies, and the use thereof” (Biomerieux, priority 2004, dated 2016)
Marks after values point to notes of the source that are not given here. Where no end group is shown, it is not given here. [ ]: non-standard residue; d: D form. Cit = NC(=O)NCCC[C@H](N)C(=O)O

Legend:
Assay type in all cases: binding, human
[1] = tested on: anti-citrullinated protein autoantibodies (ACPAs); assay: ELISA of citrullinated/native fibrin peptide pairs with serum mixtures A and B and control mixture (delta OD); settings: mean of two determinations
Experimental: Each pair of peptides (citrullinated and noncitrullinated) was assayed by ELISA with a mixture, in equal parts, of 10 sera having no ACPAs (control mixture) and with the 2 mixtures A and B described in Example 1.
Each pair of peptides (native and citrullinated form) was tested on the same plate and a pair of control peptides—citrullinated “filaggrin” peptide cfc6 and its corresponding native peptide cf0 (Schellekens G A, 1998, mentioned above)—was included in each experiment, which made it possible to calculate an inter-assay coefficient of variation and to perform corrections.
All the incubations were carried out for 1 h at 4° C. and were followed by washing in PBS-0.1% Tween. The peroxidase activity was visualized with a solution of ortho-phenylenediamine (2 mg/ml—Sigma) in hydrogen peroxide (0.03%—Sigma). The reaction was stopped after 5 minutes by adding 4M sulfuric acid, and the optical density (OD) at 492 nm was measured by virtue of an automatic spectrophotometer (Multiskan, Thermo Labsystems).
The specific reactivity of the mixtures of sera with regard to the citrullinated peptides corresponded to the difference between the OD obtained with the citrullinated peptide and that obtained with the corresponding native peptide (delta OD). The results correspond to the mean of two determinations. Any citrullinated peptide making it possible to obtain a delta OD of greater than 0.250 for at least one of the two mixtures A and B after coating in at least one of the three buffers, was considered to be reactive.

[2] = tested on: anti-citrullinated protein autoantibodies (ACPAs); assay: ELISA of reactive citrullinated fibrin peptides with the 20 individual sera of mixtures A and B; settings: for Number of positive sera: sera with delta OD not <0.25 out of sera tested (20, or 10 of mixture A only); for delta OD: best coating buffer per peptide
Experimental: The 14 peptides carrying the most reactive epitopes (delta OD≧0.5 for one or other of the mixtures of serum (A and B) with at least one of the three coating buffers) were tested independently with the 20 sera constituting the mixtures A and B, in order to evaluate the reactivity profile of each of these peptides. The tests were carried out by ELISA under the same conditions as in Example 2 above, with the exception that, for each pair of peptides, the coating buffer selected was that that had made it possible to obtain the strongest reactivity with respect to this peptide during the screening (the buffer for which the sum of the delta ODs obtained respectively for the serum mixtures A and B was at a maximum). […] Thus, for each serum, the dilution that made it possible to obtain an OD of 1 by ELISA on deiminated fibrinogen was selected (Nogueira L, 2002, mentioned above). The dilutions ranged from 1/20 to 1/2700.

[3] = tested on: anti-citrullinated protein autoantibodies (ACPAs); assay: ELISA comparing amidated and nonamidated β60-74Cit60,72,74 with serum mixtures A and B; settings: for delta OD: coating in PBS, versus noncitrullinated β60-74, mean of two experiments
Description: ELISA plates were coated with the peptide β60-74Cit60,72,74, in which the C-terminal function of the carboxy-terminal citrullyl residue is not amidated (form carrying a terminal COOH function, hereinafter referred to as “nonamidated form”), with the peptide […], in which the C-terminal function of the carboxy-terminal citrullyl residue is amidated (form carrying a terminal CONH2 function, hereinafter referred to as “amidated form”) and the noncitrullinated peptide β60-74 (in which the C-terminal function of the carboxy-terminal arginyl residue is not amidated), all diluted in PBS. The serum mixtures A and B described in Example 1 were tested according to the method described in Example 2. As in Example 2, the specific reactivity of the peptide in nonamidated form or in amidated form corresponded to the difference between the OD obtained with these two citrullinated peptides and that obtained with the noncitrullinated peptide β60-74. […] The results correspond to the mean of two experiments, each comprising two determinations.

[4] = Mixture A of sera 1/50, coating buffer PBS pH 7.4
[5] = Mixture A of sera 1/50, coating buffer acetate pH 5.0
[6] = Mixture A of sera 1/50, coating buffer carbonate pH 9.0
[7] = Mixture B of sera 1/50, coating buffer PBS pH 7.4
[8] = Mixture B of sera 1/50, coating buffer acetate pH 5.0
[9] = Mixture B of sera 1/50, coating buffer carbonate pH 9.0

Substance | delta OD (citrullinated minus native peptide, 492 nm) [1, 4] | delta OD (citrullinated minus native peptide, 492 nm) [1, 5] | delta OD (citrullinated minus native peptide, 492 nm) [1, 6] | delta OD (citrullinated minus native peptide, 492 nm) [1, 7] | delta OD (citrullinated minus native peptide, 492 nm) [1, 8] | delta OD (citrullinated minus native peptide, 492 nm) [1, 9] | Number of positive sera [2] | delta OD ([2]; serum 97.0311, dilution 1/200) | delta OD ([2]; serum 97.0459, dilution 1/60) | delta OD ([2]; serum 97.0796, dilution 1/500) | delta OD ([2]; serum 97.0907, dilution 1/300) | delta OD ([2]; serum 97.1795, dilution 1/50) | also measured
β60-74Cit60,72,74: citrullinated synthetic peptide, fibrin β-chain residues 60-74, C-terminal citrullyl amidated; fits SEQ ID NO: 1 X1PAPPPISGGGYX2AX3 (XPAPPPISGGGYXAX; HELM PEPTIDE1{[Cit].P.A.P.P.P.I.S.G.G.G.Y.[Cit].A.[Cit].[am]}$$$$V2.0; N-terminus assumed; SMILES CC[C@H](C)[C@H](NC(=O)[C@@H]1CCCN1C(=O)[C@@H]1CCCN1C(=O)[C@@H]1CCCN1C(=O)[C@H](C)NC(=O)[C@@H]1CCCN1C(=O)[C@@H](N)CCCNC(N)=O)C(=O)N[C@@H](CO)C(=O)NCC(=O)NCC(=O)NCC(=O)N[C@@H](Cc1ccc(O)cc1)C(=O)N[C@@H](CCCNC(N)=O)C(=O)N[C@@H](C)C(=O)N[C@@H](CCCNC(N)=O)C(N)=O) | 2.06 | 1.02 | 1.27 | 2.69 | 2.83 | 2.72 | 14/20 | 1.93 | 0.71^c | 0.36 | 1.17 |  | delta OD ([2]; serum 95.0256, dilution 1/35): 3.48; delta OD ([2]; serum 97.0169, dilution 1/400): 0.31; delta OD ([2]; serum 97.0244, dilution 1/2700): 1.23; delta OD ([2]; serum 97.0323, dilution 1/120): 1.73; delta OD ([2]; serum 97.0468, dilution 1/700): 1.08; delta OD ([2]; serum 97.0506, dilution 1/75): 1.93; delta OD ([2]; serum 97.0794, dilution 1/50): 0.75; delta OD ([2]; serum 97.1210, dilution 1/300): 3.33; delta OD ([2]; serum 97.1474, dilution 1/20): 0.37; delta OD ([2]; serum 97.1548, dilution 1/60): 1.48; delta OD ([3]; Mixture A): 2.13; delta OD ([3]; Mixture B): 2.74; reactivity of amidated versus nonamidated form ([3]; serum mixtures A and B, PBS coating): clearly greater than that of the nonamidated form
α588-602Cit591: citrullinated synthetic peptide, fibrin α-chain residues 588-602 (second series) (SYN[Cit]GDSTFESKSYK) | 0.16 | 0.05 | 0.36 | 0.33 | 0.06 | 0.67 | 2/20 |  |  |  |  | 0.79 | delta OD ([2]; serum 97.0169, dilution 1/400): 1.34
α183-197Cit186,190: citrullinated synthetic peptide, fibrin α-chain residues 183-197 (second series) (SCS[Cit]ALA[Cit]EVDLKDY) | 1.68 | 0.41 | 1.36 | 0.15 | 0.01 | 0.07 | 3/10 | 0.87 | 3.21 |  |  |  | delta OD ([2]; serum 97.0506, dilution 1/75): 0.85
β60-74Cit60, 72, 74 nonamidated: citrullinated synthetic peptide, fibrin β-chain residues 60-74, C-terminal citrullyl not amidated (terminal COOH) (RPAPPPISGGGYRAR; HELM PEPTIDE1{[Cit].P.A.P.P.P.I.S.G.G.G.Y.[Cit].A.[Cit]}$$$$V2.0; N-terminus assumed; SMILES CC[C@H](C)[C@H](NC(=O)[C@@H]1CCCN1C(=O)[C@@H]1CCCN1C(=O)[C@@H]1CCCN1C(=O)[C@H](C)NC(=O)[C@@H]1CCCN1C(=O)[C@@H](N)CCCNC(N)=O)C(=O)N[C@@H](CO)C(=O)NCC(=O)NCC(=O)NCC(=O)N[C@@H](Cc1ccc(O)cc1)C(=O)N[C@@H](CCCNC(N)=O)C(=O)N[C@@H](C)C(=O)N[C@@H](CCCNC(N)=O)C(=O)O) |  |  |  |  |  |  |  |  |  |  |  |  | delta OD ([3]; Mixture A): 0.30; delta OD ([3]; Mixture B): 1.16
β210-224Cit224: citrullinated synthetic peptide, fibrin β-chain residues 210-224 (QKLESDVSAQMEYC[Cit]) | 0.29 | 0.25 | 1.14 | 0.60 | 0.00 | 1.56 | 6/20 | 0.46 |  | 0.67 | 0.33 | 0.49 | delta OD ([2]; serum 97.0323, dilution 1/120): 0.36; delta OD ([2]; serum 97.1210, dilution 1/300): 0.72
α171-185Cit178,181: citrullinated synthetic peptide, fibrin α-chain residues 171-185; fits SEQ ID NO: 4 VDIDIKIX1SCX2GSCS (VDIDIKI[Cit]SC[Cit]GSCS; cysteine pairing not given here) | 0.29 | 0.15 | 0.75 | 0.21 | 0.08 | 0.47 | 9/20 | 1.95 | 0.29 |  | 0.44 | 0.57 | delta OD ([2]; serum 97.0468, dilution 1/700): 0.42; delta OD ([2]; serum 97.0524, dilution 1/200): 0.59; delta OD ([2]; serum 97.0794, dilution 1/50): 2.09; delta OD ([2]; serum 97.1474, dilution 1/20): 1.08; delta OD ([2]; serum 97.1548, dilution 1/60): 0.71
β433-447Cit436,445: citrullinated synthetic peptide, fibrin β-chain residues 433-447 (second series) (WYN[Cit]CHAANPNG[Cit]YY) | 0.58 | 0.41 | 0.67 | 0.00 | 0.00 | 0.03 | 2/10 |  |  | 0.71 |  |  | delta OD ([2]; serum 97.0388, dilution 1/50): 1.14
